Each block holds one molecule with its values, some of them ahead of it. Where a SMILES comes first, the peptide text is derived from it. Bridges are numbered along the chain shown (N, C = ends). Roman numbers before positions name the chains, in order. Where no end group is shown, it is not given here. [ ]: non-standard residue; d: D form. Aib = CC(C)(N)C(=O)O; Ahx = NCCCCCC(=O)O
Legend:
SK-MEL-5 cells = type: cell-based; details: 18 h
Description: FIG. 4. (A) Assay of cell viability using incorporation of ^3H-thymidine after treatment with different concentrations of SEQ ID No. 10 for 18 hrs. (B) Flow cytometry of SK-MEL5 cells before and after treatment with 10 microM SEQ ID No. 10 with DR6 tags at two branches, using Annexin V and Propidium Iodide (lower panel) and forward/side scatter (upper panel).
The effect of SEQ ID No. 10 on viability was also measured by ^3H thymidine uptake (FIG. 4 (A)). […] The apoptosis of SK-Mel5 cells was quantitated using flow cytometry. 49% of cells were determined to be apoptotic and 11% necrotic at 2 hrs using annexin V stain. Corresponding figures for 6 hrs were 57% and 14%, respectively (FIG. 4(B)). From the results presented here and analysis of growth promoting pathways described later-S100B appears to be a generalized growth promoter, when over-expressed.

[1] = Toxicity in mice, i.v. treatment; type: in vivo, mouse
Description: The effect of SEQ ID No. 10 was tested in a syngenic mouse model of melanoma. […] Histopathology of some key target organs after 8 days of treatment was normal, indicating no significant toxicity. […] Immuno-histochemistry of growth marker PCNA indicates complete loss of this antigen in the residual tumor mass upon treatment, indicating complete loss of proliferating cells (FIG. 7(C)).
Experiments were carried out under protocols approved by the Institutional Animal Ethics Committee and institutional guidelines for the proper use of animals in research were followed. National guidelines had been followed. C57BL/6J female mice (mean initial weight, 20 g) were kept in one mice in one cage at 19° C. to 23° C. with a 12 hour light/12 hour dark cycle. They had free access to water and food. To generate tumor, 1×10^6 B16F10 cells were mixed with Matrigel (BD bioscience) and inoculated S.C. in the right flank of 6 week-old mice. Tumors (typically 2 mm in diameter) were palpable 5 days after subcutaneous injection. Peptide treatments (50 mg/kg body weight) were administered by intravenous tail vein injection on the day tumors became apparent (day 0) and then days 1, 2, 3, 4, 5, 6 and 7. Control mice were treated only with saline vehicle. Mice were weighted, and tumor volumes were calculated with the following formula: π/6×larger diameter×(smaller diameter)^2.

SK-MEL5 cells = assay: Phase contrast microscopy of SK-MEL5 cells (shape change, blebbing, apoptosis); type: cell-based
From the text: FIG. 3. Phase contrast microscopy of SK-MEL5 cells (A) 2 hrs after treatment with 10 microM SEQ ID No. 10; (B) 18 hrs after treatment with 20 microM branch dimeric SEQ ID No. 5 (i.e., SEQ ID No. 12); (C) 2 hr after treatment with branch dimeric SEQ ID No. 3 (i.e., SEQ ID No. 11) (without the cell penetration tag) and (D) control.
FIG. 6. (A) Phase contrast microscopy of SK-MEL5 cells (Upper panel) 10 microM SEQ ID No. 10 with DR6 tags at two branches (Lower panel), and 10 microM pBBDR-TRTK (i.e., SEQ ID No. 10), pre-treated with 10 microM pifithrin-micro, 1 hr after treatment (Upper panel). (B) Confocal microscopic images of merged p53 (green) and mitotracker (red), Top untreated and bottom, 1 h after treatment with SEQ ID No. 10.
The effect of all the synthesized peptides on several melanoma cell lines which are known to over-express S100B was investigated.
Given the rapidity of apoptosis initiation, the examination of the recently reported direct mitochondrial translocation pathway was also done by the method if Vaseva and Moll, 2009. It has been reported that a small molecule pifithrin-micro blocks this pathway without affecting the canonical transcription-dependent pathway of p53 initiated apoptosis and a close analog, pifithrin-α blocks the canonical pathway without affecting the direct mitochondrial pathway (Strom et al., 2006). […]

S100B = biological target: T1, S100B (Homo sapiens, UniProt P04271); assay: Fluorescence anisotropy binding of N-terminal fluorescein labeled peptides to S100B
T1 sequence (P04271 1-92): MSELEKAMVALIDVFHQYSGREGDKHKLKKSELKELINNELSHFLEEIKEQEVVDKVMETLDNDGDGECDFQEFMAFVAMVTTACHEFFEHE
From the text: FIG. 2. (A) Table of some representative peptides synthesized which respectively include pM-53 (SEQ ID No. 6), pBN-53 (SEQ ID No. 7), pBDC-53 (SEQ ID No. 8), pBM-TRTK (SEQ ID No. 2), pBDC-TRTK (two SEQ ID No. 2's cross-linked together with BMH), and pBBD-TRTK (SEQ ID No. 11) and their dissociation constants. Binding isotherm of branch dimeric SEQ ID No. 3 (i.e., SEQ ID No. 11) with (B) S-100B and (C) S100P and (D) branch dimeric SEQ ID No. 5 (i.e., SEQ ID No. 12) with S100B. Fluorescein labeled, 5 nM branch dimeric SEQ ID No. 3 (i.e., SEQ ID No. 11) or branch dimeric SEQ ID No. 5 (i.e., SEQ ID No. 12) was titrated with increasing concentrations of S100B or S100P in 50 mM Tris-HCl buffer, pH 7.5, containing 50 mM NaCl and 10 mM CaCl2 at ambient temperatures which was 25±1 degree C. Anisotropy was determined at each point. The each point is averaging of at least three independent experiments. The line is best fit to a single site binding equation given in description of the invention.
Binding affinity of aib substituted p53 (SEQ ID No. 7) (and all other peptides) was estimated by fluorescence anisotropy using N-terminal fluorescein labeled peptides. […] Since S100B is a dimer, one possible way to enhance the binding is to synthesize a bivalent molecule, which can simultaneously bind to two subunits. SEQ ID No. 7 was dimerized with a properly designed cross-linker through inserted cysteine residues (SEQ ID No. 8). The C-terminal side of the two peptides (bound to two different subunits) comes fairly close and is separated by shallow groove allowing a cross-linker to fit. The length of the cross-linker was chosen such that it spans the separation between the two cysteine residues in the predicted structure.
Binding data of the several of these peptides are shown in FIG. 2 (A) and some of the corresponding binding isotherms are shown FIG. 2(B-D). […] Also synthesized was a mutant branched peptide (SEQ ID No. 12 which is a lysine branch dimeric form of SEQ ID No. 5) bearing two mutations in the interacting residues. […] This peptide will be used as a control in the cellular experiments to be described later.

[2] = upto 50 mg/Kg body weight, i.v.

Molecule: CC[C@H](C)[C@H](NC(=O)[C@H](CCCCN)NC(=O)[C@@H](NC(=O)[C@H](CCCNC(=N)N)NC(=O)[C@@H](NC(=O)[C@@H](CCCNC(=N)N)NC(=O)[C@@H](CCCNC(=N)N)NC(=O)[C@@H](CCCNC(=N)N)NC(=O)[C@@H](CCCNC(=N)N)NC(=O)[C@@H](CCCNC(=N)N)NC(=O)[C@H](N)CCCNC(=N)N)[C@@H](C)O)[C@@H](C)O)C(=O)N[C@@H](CC(=O)O)C(=O)N[C@@H](Cc1c[nH]c2ccccc12)C(=O)NC(C)(C)C(=O)N[C@@H](CCCCN)C(=O)N[C@H](C(=O)N[C@@H](CC(C)C)C(=O)NC(C)(C)C(=O)N[C@@H](CCCCN)C(=O)NCCCCCC(=O)NCCCC[C@H](NC(=O)CCCCCNC(=O)[C@H](CCCCN)NC(=O)C(C)(C)NC(=O)[C@H](CC(C)C)NC(=O)[C@@H](NC(=O)[C@H](CCCCN)NC(=O)C(C)(C)NC(=O)[C@H](Cc1c[nH]c2ccccc12)NC(=O)[C@H](CC(=O)O)NC(=O)[C@@H](NC(=O)[C@H](CCCCN)NC(=O)[C@@H](NC(=O)[C@H](CCCNC(=N)N)NC(=O)[C@@H](NC(=O)[C@@H](CCCNC(=N)N)NC(=O)[C@@H](CCCNC(=N)N)NC(=O)[C@@H](CCCNC(=N)N)NC(=O)[C@@H](CCCNC(=N)N)NC(=O)[C@@H](CCCNC(=N)N)NC(=O)[C@H](N)CCCNC(=N)N)[C@@H](C)O)[C@@H](C)O)[C@@H](C)CC)[C@@H](C)CC)C(N)=O)[C@@H](C)CC [SEQ ID No. 10, ^DR6 TRTKIDWBKILBKAhxKAhxKBLIKBWDIKTRT-^DR6]
IC50 (SK-MEL-5 cells): < 2000 nM
histopathology of key target organs ([1]; after 8 days of treatment, 50 mg/Kg): normal
lethality [1, 2]: non-lethal
toxicity [1, 2]: no demonstrable toxicity

Molecule: SEQ ID No. 2 with DR6 tags at two branches: pBM-TRTK dimerised with BMH crosslinker and tagged with hexa-arginine (TRTKIDW[Aib]KIL[Aib]GGGCG-NH2; also: dimer through Cys via BMH crosslinker, DR6 (hexa-arginine) tags on two branches, place not given here)
potency in inducing apoptosis relative to SEQ ID No. 10 (SK-MEL5 cells; SK-MEL5): nearly as potent as SEQ ID No. 10

increase in affinity for S100B upon dimerization (S100B; cross-linked dimer versus monomer SEQ ID No. 7): approximately 15 fold
Molecule: SEQ ID No. 8: GCGG Modified pBM53 dimerised with BMH crosslinker; monomer QSTBRHBKLMFKTBGGGCG (QST[Aib]RH[Aib]KLMFKT[Aib]GGGCG-NH2; also: dimer via BMH crosslinker)

Molecule: SEQ ID No. 2: pBM-TRTK dimerised through cysteine residues with BMH cross-linker (TRTKIDW[Aib]KIL[Aib]GGGCG-NH2; also: dimer through Cys via BMH crosslinker)
binding to S100B relative to parent peptide, in words (S100B; fluorescence anisotropy): approximately an order of magnitude tighter binding

Kd (S100B; fluorescence anisotropy, 50 mM Tris-HCl pH 7.5, 50 mM NaCl, 10 mM CaCl2, 25 degree C, read-out: Kd (dissociation constant) for S100B): 135 ± 18.5 nM
Molecule: CC[C@H](C)[C@H](NC(=O)[C@H](CCCCN)NC(=O)C(C)(C)NC(=O)[C@H](C)NC(=O)[C@H](CC(=O)O)NC(=O)[C@H](C)NC(=O)[C@H](CCCCN)NC(=O)[C@@H](NC(=O)[C@H](CCCNC(=N)N)NC(=O)[C@@H](N)[C@@H](C)O)[C@@H](C)O)C(=O)N[C@@H](CC(C)C)C(=O)NC(C)(C)C(=O)N[C@@H](CCCCN)C(=O)NCCCCCC(=O)NCCCC[C@H](NC(=O)CCCCCNC(=O)[C@H](CCCCN)NC(=O)C(C)(C)NC(=O)[C@H](CC(C)C)NC(=O)[C@@H](NC(=O)[C@H](CCCCN)NC(=O)C(C)(C)NC(=O)[C@H](C)NC(=O)[C@H](CC(=O)O)NC(=O)[C@H](C)NC(=O)[C@H](CCCCN)NC(=O)[C@@H](NC(=O)[C@H](CCCNC(=N)N)NC(=O)[C@@H](N)[C@@H](C)O)[C@@H](C)O)[C@@H](C)CC)C(N)=O [SEQ ID No. 12, TRTKADABKILBKAhxKAhxKBLIKBADAKTRT-(I5A,W7A)] (I: H-TRTKADA[Aib]KIL[Aib]K[Ahx]K-NH2 / II: H-TRTKADA[Aib]KIL[Aib]K[Ahx]; amide I:15-II:C; N-terminus assumed)

dissociation constant for S100B, in words (S100B; fluorescence anisotropy): micromolar range
Molecule: QSTBRHBKLMFKTBG (QST[Aib]RH[Aib]KLMFKT[Aib]G-NH2) [SEQ ID No. 7, P53 Aib substituted monomer peptide]
binding to S100B relative to parent peptide, in words (S100B; fluorescence anisotropy): somewhat stronger than the unmodified peptide

Molecule: NS(=O)(=O)C#Cc1ccccc1 [pifithrin-μ, reference compound]
effect of pifithrin-μ on peptide-induced apoptosis (SK-MEL5 cells; 10 microM pifithrin pre-treatment, 10 microM peptide, 1 hr): blebbings are not seen
